Drawing on US12110293B2, “Substituted triazolo quinoxaline derivatives” (GRÜNENTHAL GMBH, priority 2018, dated 2024), this text covers IC50 or EC50 (agonist or antagonist mode not specified) for 27 compounds.

Where only a bound is given, the exact number is not on record here.

The experiment has as its target T1, glucocorticoid receptor (Homo sapiens, UniProt P04150).
T1 construct: expressed in transfected cells
T1 sequence (P04150 524-758 limits assumed): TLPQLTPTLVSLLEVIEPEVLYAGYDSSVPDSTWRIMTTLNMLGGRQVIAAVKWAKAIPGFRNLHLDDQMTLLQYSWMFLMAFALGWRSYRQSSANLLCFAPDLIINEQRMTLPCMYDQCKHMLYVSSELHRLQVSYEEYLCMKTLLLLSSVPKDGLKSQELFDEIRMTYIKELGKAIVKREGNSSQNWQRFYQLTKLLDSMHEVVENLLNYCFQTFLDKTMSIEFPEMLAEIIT
Description: Agonistic mode of action on the glucocorticoid receptor (CHO-Gal4/GR luciferase reporter cell line). It counts as cell-based. Conditions: range class observed in the agonistic assay or the antagonistic assay (CHO-Gal4/GR reporter cells); table does not say which mode applies per example. A digest of the protocol:
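Agonism measured as dose-dependent luciferase luminescence (FLIPR Tetra) from a GAL4-UAS reporter driven by GAL4 DBD fused to GR ligand-binding domain in stable CHO cells. Eight half-log doses, 10 μM to 0.003 μM final in 0.5% DMSO, quadruplicate, on cells seeded 24 h earlier at 5000/well; EC50 derived.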
In general terms: Reporter assays use an easily measured gene product as a stand-in for the process of interest.
On to `Cc1nnc2n1-c1c(cc(F)c(-c3cc(F)cc4c3ccn4S(C)(=O)=O)c1C(F)F)NC2(C)C` [Example 390, 9-(Difluoro-methyl)-7-fluoro-8-(6-fluoro-1-methylsulfonyl-1H-indol-4-yl)-1,4,4-trimethyl-5H-[1,2,4]triazolo[4,3-a]quinoxaline], for which the IC50 or EC50 (agonist or antagonist mode not specified) is < 0.1 µM. `Cc1cc2c(c(F)c1-c1cccc3c1ccn3CC(F)F)-n1c(C)nnc1C(C)(C)N2` [Example 392, 8-[1-(2,2-Difluoro-ethyl)-1H-indol-4-yl]-9-fluoro-1,4,4,7-tetramethyl-5H-[1,2,4]triazolo[4,3-a]quinoxaline] had an IC50 or EC50 (agonist or antagonist mode not specified) of 1 to 15 µM. The compound `Cc1nnc2n1-c1c(cc(OC(F)F)c(-c3cccc4c3ccn4CC(F)F)c1F)NC2(C)C` [Example 393, 8-[1-(2,2-Difluoro-ethyl)-1H-indol-4-yl]-7-(difluoro-methoxy)-9-fluoro-1,4,4-trimethyl-5H-[1,2,4]triazolo [4,3-a]quinoxaline] came in with an IC50 or EC50 (agonist or antagonist mode not specified) of 1 to 15 µM. In the case of `COCCn1ccc2c(-c3c(OC(F)F)cc4c(c3F)-n3c(C)nnc3C(C)(C)N4)cc(F)cc21` [Example 394, 7-(Difluoro-methoxy)-9-fluoro-8-[6-fluoro-1-(2-methoxy-ethyl)-1H-indol-4-yl]-1,4,4-trimethyl-5H-[1,2,4]triazolo[4,3-a]quinoxaline] it was 1 to 15 µM. For `COCCn1ccc2c(-c3c(C(F)F)cc4c(c3F)-n3c(C)nnc3C(C)(C)N4)cc(F)cc21` [Example 396, 7-(Difluoro-methyl)-9-fluoro-8-[6-fluoro-1-(2-methoxy-ethyl)-1H-indol-4-yl]-1,4,4-trimethyl-5H-[1,2,4]triazolo[4,3-a]quinoxaline] the value was 1 to 15 µM; for `COc1c(-c2cccc3c2ccn3CC(F)F)c(F)cc2c1-n1c(C)nnc1C(C)(C)N2` [Example 397, 8-[1-(2,2-Difluoro-ethyl)-1H-indol-4-yl]-7-fluoro-9-methoxy-1,4,4-trimethyl-5H-[1,2,4]triazolo[4,3-a]quinoxaline], 0.1 to 1 µM; for `Cc1nnc2n1-c1c(cc(F)c(-c3cccc4c3ccn4CC(F)F)c1C(F)F)NC2(C)C` [Example 398, 8-[1-(2,2-Difluoro-ethyl)-1H-indol-4-yl]-9-(difluoro-methyl)-7-fluoro-1,4,4-trimethyl-5H-[1,2,4]triazolo [4,3-a]quinoxaline], 0.1 to 1 µM. For `Cc1c(-c2cccc3[nH]ccc23)c(F)cc2c1-n1c(C)nnc1C(C)(C)N2` [Example 399, 7-Fluoro-8-(1H-indol-4-yl)-1,4,4,9-tetramethyl-5H-[1,2,4]triazolo[4,3-a]quinoxaline] the value was < 0.1 µM. On to `Cc1nnc2n1-c1c(cc(F)c(-c3cccc4c3ccn4S(=O)(=O)C(C)C)c1C(F)F)NC2(C)C` [Example 400, 9-(Difluoro-methyl)-7-fluoro-8-[1-(isopropylsulfonyl)-1H-indol-4-yl]-1,4,4-trimethyl-5H-[1,2,4]triazolo [4,3-a]quinoxaline], for which the IC50 or EC50 (agonist or antagonist mode not specified) lay within 1 to 15 µM.

On to `Cc1nnc2n1-c1c(cc(F)c(-c3cccc4c3ccn4S(=O)(=O)C3CC3)c1C(F)F)NC2(C)C` [Example 401, 8-[1-(Cyclopropylsulfonyl)-1H-indol-4-yl]-9-(difluoro-methyl)-7-fluoro-1,4,4-trimethyl-5H-[1,2,4]triazolo [4,3-a]quinoxaline], for which the IC50 or EC50 (agonist or antagonist mode not specified) was in the range of 0.1 to 1 µM. In the case of `COCCn1ccc2c(-c3c(F)cc4c(c3C(F)F)-n3c(C)nnc3C(C)(C)N4)cc(F)cc21` [Example 402, 9-(Difluoro-methyl)-7-fluoro-8-[6-fluoro-1-(2-methoxy-ethyl)-1H-indol-4-yl]-1,4,4-trimethyl-5H-[1,2,4]triazolo[4,3-a]quinoxaline] it was 0.1 to 1 µM. In the case of `Cc1c(-c2cc(F)cc3c2ccn3S(C)(=O)=O)c(OC(F)(F)F)cc2c1-n1c(C)nnc1C(C)(C)N2` [Example 403, 8-(6-Fluoro-1-methylsulfonyl-1H-indol-4-yl)-1,4,4,9-tetramethyl-7-(trifluoromethyloxy)-5H-[1,2,4]triazolo[4,3-a]quinoxaline] it was < 0.1 µM.

In turn, `COCCn1ccc2c(-c3c(Cl)cc4c(c3F)-n3c(C)nnc3C(C)(C)N4)cc(F)cc21` [Example 404, 7-Chloro-9-fluoro-8-[6-fluoro-1-(2-methoxy-ethyl)-1H-indol-4-yl]-1,4,4-trimethyl-5H-[1,2,4]triazolo[4,3-a]quinoxaline] had an IC50 or EC50 (agonist or antagonist mode not specified) of 0.1 to 1 µM. For `Cc1c(-c2cccc3c(C)c[nH]c23)c(OC(F)(F)F)cc2c1-n1c(C)nnc1C(C)(C)N2` [Example 405, 1,4,4,9-Tetramethyl-8-(3-methyl-1H-indol-7-yl)-7-(trifluoromethyloxy)-5H-[1,2,4]triazolo[4,3-a]quinoxaline] the value was 0.1 to 1 µM. In the case of `Cc1c(-c2cc(F)cc3c(C)c[nH]c23)c(OC(F)(F)F)cc2c1-n1c(C)nnc1C(C)(C)N2` [Example 406, 8-(5-Fluoro-3-methyl-1H-indol-7-yl)-1,4,4,9-tetramethyl-7-(trifluoromethyloxy)-5H-[1,2,4]triazolo[4,3-a]quinoxaline] it was 0.1 to 1 µM; in that of `COc1cc2c(c(C(F)(F)F)c1-c1cc(F)cc3c(C)c[nH]c13)-n1c(C)nnc1C(C)(C)N2` [Example 407, 8-(5-Fluoro-3-methyl-1H-indol-7-yl)-7-methoxy-1,4,4-trimethyl-9-(trifluoromethyl)-5H-[1,2,4]triazolo[4,3-a]quinoxaline], < 0.1 µM. `Cc1nnc2n1-c1c(cc(F)c(-c3cccc4[nH]ccc34)c1F)NC2(C)C` [Example 445, 7,9-Difluoro-8-(1H-indol-4-yl)-1,4,4-trimethyl-5H-[1,2,4] triazolo[4,3-a]quinoxaline]: the IC50 or EC50 (agonist or antagonist mode not specified) is < 0.1 µM.

With `Cc1nnc2n1-c1c(cc(F)c(-c3cccc4c3cnn4S(C)(=O)=O)c1C(F)(F)F)NC2(C)C` [Example 446, 7-fluoro-1,4,4-trimethyl-8-(1-(methylsulfonyl)-1H-indazol-4-yl)-9-(trifluoromethyl)-4,5-dihydro-[1,2,4]triazolo[4,3-a]quinoxaline], the IC50 or EC50 (agonist or antagonist mode not specified) fell in the range of 0.1 to 1 µM. For `Cc1nnc2n1-c1c(cc(F)c(-c3cc(F)cc4c3ccn4CCO)c1C(F)(F)F)NC2(C)C` [Example 447, 2-[6-Fluoro-4-[7-fluoro-1,4,4-trimethyl-9-(trifluoromethyl)-5H-[1,2,4]triazolo[4,3-a]quinoxalin-8-yl]-1H-indol-1-yl]-ethanol] the value was 0.1 to 1 µM; for `CCS(=O)(=O)n1ncc2c(-c3c(F)cc4c(c3C(F)(F)F)-n3c(C)nnc3C(C)(C)N4)cc(F)cc21` [Example 448, 8-[1-(Ethylsulfonyl)-6-fluoro-1H-indazol-4-yl]-7-fluoro-1,4,4-trimethyl-9-(trifluoromethyl)-5H-[1,2,4]triazolo[4,3-a]quinoxaline], 0.1 to 1 µM; for `Cc1nnc2n1-c1c(cc(F)c(-c3cc(F)cc4c3cnn4CCO)c1C(F)(F)F)NC2(C)C` [Example 449, 2-[6-Fluoro-4-[7-fluoro-1,4,4-trimethyl-9-(trifluoromethyl)-5H-[1,2,4]triazolo[4,3-a]quinoxalin-8-yl]-1H-indazol-1-yl]-ethanol], < 0.1 µM. For `Cc1c(-c2cccc3c2ccn3S(C)(=O)=O)ccc2c1-n1c(C)nnc1C(C)(C)N2` [Example 450, 1,4,4,9-tetramethyl-8-(1-(methylsulfonyl)-1H-indol-4-yl)-4,5-dihydro-[1,2,4]triazolo[4,3-a]quinoxaline] the value was 0.1 to 1 µM.

Compound `Cc1c(-c2cc(F)cc3c2ccn3CCO)ccc2c1-n1c(C)nnc1C(C)(C)N2` [Example 451, 2-[6-Fluoro-4-(1,4,4,9-tetramethyl-5H-[1,2,4]triazolo[4,3-a]quinoxalin-8-yl)-1H-indol-1-yl]-ethanol] gave an IC50 or EC50 (agonist or antagonist mode not specified) of 0.1 to 1 µM. For `Cc1c(-c2cc(F)cc3c(C)c[nH]c23)ccc2c1-n1c(C)nnc1C(C)(C)N2` [Example 452, 8-(5-Fluoro-3-methyl-1H-indol-7-yl)-1,4,4,9-tetramethyl-5H-[1,2,4]triazolo[4,3-a]quinoxaline] the value was < 0.1 µM.

As for `Cc1c(-c2cc(F)cc3c2ccn3S(C)(=O)=O)ccc2c1-n1c(C)nnc1C(C)(C)N2` [Example 453, 8-(6-Fluoro-1-methylsulfonyl-1H-indol-4-yl)-1,4,4,9-tetramethyl-5H-[1,2,4]triazolo[4,3-a]quinoxaline], the IC50 or EC50 (agonist or antagonist mode not specified) is < 0.1 µM. For `Cc1nnc2n1-c1c(cc(F)c(-c3cc(F)cc4c3cnn4S(C)(=O)=O)c1C(F)(F)F)NC2(C)C` [Example 454, 7-Fluoro-8-(6-fluoro-1-methylsulfonyl-1H-indazol-4-yl)-1,4,4-trimethyl-9-(trifluoromethyl)-5H-[1,2,4]triazolo[4,3-a]quinoxaline] the value was 0.1 to 1 µM; for `CCS(=O)(=O)n1ccc2c(-c3c(F)cc4c(c3C(F)(F)F)-n3c(C)nnc3C(C)(C)N4)cccc21` [Example 455, 8-[1-(Ethylsulfonyl)-1H-indol-4-yl]-7-fluoro-1,4,4-trimethyl-9-(trifluoromethyl)-5H-[1,2,4]triazolo[4,3-a]quinoxaline], < 0.1 µM.
